In ChEMBL document CHEMBL4765442, “Anti-Giardia Drug Discovery: Current Status and Gut Feelings” (J Med Chem, 2020):
≈ marks a conversion by molar mass, not a printed value.

How the values were obtained:
Giardia intestinalis [1] = assay: Antigiardial activity against Giardia intestinalis IMSS:0696:1 incubated for 48 hrs followed by wash out by hemocytometric counting method; type: functional, organism-based; settings: Giardia duodenalis, IMSS:0696:1, 48 h
[2] = Selectivity ratio of CC50 for human HeLa cells incubated for 2 days by alamarBlue reagent to IC50 for Giardia lamblia BRIS/87/HEPU/713 measured after 48 hrs by BacTiter-Glo cell viability assay; type: toxicity; settings: read-out: Ratio CC50/IC50
Giardia intestinalis [3] = assay: Antimicrobial activity against Giardia lamblia BRIS/83/HEPU/106 trophozoites measured after 2 days by BacTiter-Glo cell viability assay; type: functional, organism-based; settings: Giardia duodenalis, BRIS/83/HEPU/106, 48 h
Giardia intestinalis [4] = assay: Antimicrobial activity against Giardia lamblia 713M3 trophozoites measured after 2 days by BacTiter-Glo cell viability assay; type: functional, organism-based; settings: Giardia duodenalis, 713M3, 48 h
[5] = Selectivity ratio of CC50 for human HeLa cells incubated for 2 days by alamarBlue reagent to IC50 for Giardia lamblia WB-M2 measured after 48 hrs by BacTiter-Glo cell viability assay; type: toxicity; settings: time 2 day, read-out: Ratio CC50/IC50
Giardia intestinalis [6] = assay: Antimicrobial activity against Giardia lamblia WB-M2 trophozoites measured after 2 days by BacTiter-Glo cell viability assay; type: functional, organism-based; settings: Giardia duodenalis, WB-M2, 48 h
Giardia intestinalis [7] = assay: Antimicrobial activity against Giardia lamblia BRIS/87/HEPU/713 trophozoites measured after 48 hrs by BacTiter-Glo cell viability assay; type: functional, organism-based; settings: Giardia duodenalis, BRIS/87/HEPU/713, 48 h
[8] = Selectivity ratio of CC50 for human HeLa cells incubated for 2 days by alamarBlue reagent to IC50 for Giardia lamblia 713M3 measured after 48 hrs by BacTiter-Glo cell viability assay; type: toxicity; settings: read-out: Ratio CC50/IC50
[9] = Selectivity ratio of CC50 for human HeLa cells incubated for 2 days by alamarBlue reagent to IC50 for Giardia lamblia BRIS/83/HEPU/106 measured after 48 hrs by BacTiter-Glo cell viability assay; type: toxicity; settings: read-out: Ratio CC50/IC50
Giardia intestinalis [10] = assay: Antigiardial activity against Giardia lamblia 713M3 trophozoites incubated for 3 days by microscopic method; type: functional, Giardia duodenalis; settings: time 3 day
Giardia intestinalis [11] = assay: Antigiardial activity against Giardia lamblia GS/H7 trophozoites incubated for 3 days by microscopic method; type: functional, Giardia duodenalis; settings: time 3 day
Giardia intestinalis [12] = assay: Antigiardial activity against Giardia lamblia incubated for 48 hrs by ATPLite reagent based luminescence assay; type: functional, organism-based; settings: Giardia duodenalis
Giardia intestinalis [13] = assay: Antigiardial activity against Giardia intestinalis IMSS-1090-1 incubated for 48 hrs followed by hemocytometric counting method; type: functional, organism-based; settings: Giardia duodenalis, IMSS-1090-1, 48 h
Giardia intestinalis [14] = assay: Antigiardial activity against Giardia intestinalis UNAM-0688-2 incubated for 48 hrs followed by hemocytometric counting method; type: functional, organism-based; settings: Giardia duodenalis, UNAM-0688-2, 48 h
Giardia intestinalis [15] = assay: Antigiardial activity against Giardia intestinalis N1-INP incubated for 48 hrs followed by hemocytometric counting method; type: functional, organism-based; settings: Giardia duodenalis
Giardia intestinalis [16] = assay: Antigiardial activity against Giardia intestinalis BRIS/91/HEPU/1411 incubated for 48 hrs followed by compound wash out by hemocytometric counting method; type: functional, organism-based; settings: Giardia duodenalis, BRIS/91/HEPU/1411, 48 h
Giardia intestinalis [17] = assay: Antigiardial activity against Giardia intestinalis WB30957 incubated for 48 hrs followed by hemocytometric counting method; type: functional, organism-based; settings: Giardia duodenalis, WB30957, 48 h
Giardia intestinalis [18] = assay: Antigiardial activity against Giardia intestinalis WB incubated for 48 hrs by hemocytometric counting method; type: functional, organism-based; settings: Giardia duodenalis
Giardia intestinalis [19] = assay: Antigiardial activity against Giardia intestinalis WB ATCC 30957 incubated for 72 hrs by hemocytometric counting method; type: functional, organism-based; settings: Giardia duodenalis, WB ATCC 30957, 72 h
Giardia intestinalis [20] = assay: Antigiardial activity against Giardia lamblia WB (ATCC 30957) incubated for 3 days by [3H]thymidine incorporation based assay; type: functional, organism-based; settings: Giardia duodenalis
Giardia intestinalis [21] = assay: Antigiardial activity against Giardia intestinalis incubated for 48 hrs; type: functional, organism-based; settings: Giardia duodenalis
Giardia intestinalis [22] = assay: Antigiardial activity against metronidazole-resistant Giardia duodenalis WB1B-M3 incubated for 3 days followed by compound wash-out and measured after 4 days; type: functional; settings: time 3 day
Giardia intestinalis [23] = assay: Antigiardial activity against Giardia duodenalis Ac1 incubated for 3 days by fluorescence method; type: functional, organism-based; settings: Ac1, 72 h
Giardia intestinalis [24] = assay: Antigiardial activity against Giardia duodenalis WB (ATCC 30957) incubated for 3 days by fluorescence method; type: functional, organism-based; settings: WB ATCC 30957, 72 h
Giardia intestinalis [25] = assay: Antigiardial activity against Giardia duodenalis Ec1 incubated for 3 days by fluorescence method; type: functional, organism-based; settings: Ec1, 72 h
[26] = Half-life of the compound; type: physicochemical
Giardia intestinalis [27] = assay: Growth inhibition of Giardia duodenalis isolate 14-03/F7 measured after 24 hrs by resazurin based assay; type: functional, organism-based; settings: isolate 14-03/F7, 24 h
Giardia intestinalis [28] = assay: Antigiardial activity against Giardia duodenalis Ah1 incubated for 3 days by fluorescence method; type: functional, organism-based; settings: Ah1, 72 h
Giardia intestinalis [29] = assay: Antigiardial activity against Giardia duodenalis Ah2 incubated for 3 days by fluorescence method; type: functional, organism-based; settings: Ah2, 72 h
Giardia intestinalis [30] = assay: Antigiardial activity against metronidazole-resistant Giardia duodenalis BRIS/83/HEPU/106-2ID10 incubated for 3 days followed by compound wash-out and measured after 4 days; type: functional; settings: time 3 day
Giardia intestinalis [31] = assay: Antigiardial activity against Giardia duodenalis G1 incubated for 3 days by fluorescence method; type: functional, organism-based; settings: G1, 72 h
Giardia intestinalis [32] = assay: Antigiardial activity against Giardia duodenalis BRIS/91/HEPU/1279 incubated for 3 days followed by compound wash-out and measured after 4 days; type: functional; settings: time 3 day
Giardia intestinalis [33] = assay: Antigiardial activity against Giardia duodenalis BRIS/83/HEPU/106 incubated for 3 days followed by compound wash-out and measured after 4 days; type: functional; settings: time 3 day
Giardia intestinalis [34] = assay: Antigiardial activity against Giardia duodenalis Ec2 incubated for 3 days by fluorescence method; type: functional, organism-based; settings: Ec2, 72 h
Giardia intestinalis [35] = assay: Antigiardial activity against Giardia duodenalis GS/M-83-H7 (ATCC 50581) incubated for 3 days by fluorescence method; type: functional, organism-based; settings: 72 h
Giardia intestinalis [36] = assay: Antigiardial activity against Giardia duodenalis Ac2 incubated for 3 days by fluorescence method; type: functional, organism-based; settings: Ac2, 72 h
Giardia intestinalis [37] = assay: Antigiardial activity against metronidazole-resistant Giardia duodenalis 106-2ID10; type: functional
Giardia intestinalis [38] = assay: Antigiardial activity against metronidazole-resistant Giardia duodenalis WB-M3; type: functional
Giardia intestinalis [39] = assay: Antigiardial activity against metronidazole-resistant Giardia duodenalis 713-M3; type: functional
Giardia intestinalis [40] = assay: Antigiardial activity against Giardia lamblia WB incubated for 48 hrs by microscopic method; type: functional, organism-based; settings: Giardia duodenalis
Giardia intestinalis [41] = assay: Antigiardial activity against Giardia lamblia P1 incubated for 48 hrs by haemocytometric counting method; type: functional, organism-based; settings: Giardia duodenalis, P1, 48 h
Giardia intestinalis [42] = assay: Antigiardial activity against Giardia lamblia H/7 incubated for 48 hrs by microscopic method; type: functional, organism-based; settings: Giardia duodenalis, H/7, 48 h
Giardia intestinalis [43] = assay: Antigiardial activity against Giardia lamblia WBC6 incubated for 48 hrs; type: functional, organism-based; settings: Giardia duodenalis, WBC6, 48 h
Giardia intestinalis [44] = assay: Antigiardial activity against metronidazole-resistant Giardia lamblia 713-M3 incubated for 48 hrs; type: functional, organism-based; settings: Giardia duodenalis, 713-M3, 48 h
Giardia intestinalis [45] = assay: Antigiardial activity against Giardia lamblia 713 incubated for 48 hrs; type: functional, organism-based; settings: Giardia duodenalis, 713, 48 h

Compound: Cc1ncc([N+](=O)[O-])n1CC(C)OC(=O)Nc1ccc(F)cc1 (centres undefined)
- IC50 (Giardia intestinalis [1]): 500 nM

Compound: O=C(CCCCCn1cc(C2CC2)nn1)Nc1ncc([N+](=O)[O-])s1
- selectivity ratio at 48 h [2]: > 500
- IC50 (Giardia intestinalis [3]): 100 nM
- IC50 (Giardia intestinalis [4]): 100 nM
- selectivity ratio at 48 h [5]: > 27
- IC50 (Giardia intestinalis [6]): 1800 nM
- IC50 (Giardia intestinalis [7]): 100 nM
- selectivity ratio at 48 h [8]: > 27
- selectivity ratio at 48 h [9]: > 27

Compound: CCN(CC)C(=S)SSC(=S)N(CC)CC
- MLC (Giardia intestinalis [10]): 0.8 µM (≈ 0.237 µg/mL)
- MLC (Giardia intestinalis [11]): 1.5 µM (≈ 0.445 µg/mL)
- IC50 (Giardia intestinalis [12]): 900 nM

Compound: CSc1nc2cc(Cl)c(C(=O)Nc3ncc([N+](=O)[O-])s3)cc2n1C
- IC50 (Giardia intestinalis [13]): 10 nM
- IC50 (Giardia intestinalis [14]): 10 nM
- IC50 (Giardia intestinalis [15]): 71 nM
- IC50 (Giardia intestinalis [16]): 10 nM
- IC50 (Giardia intestinalis [17]): 10 nM
- IC50 (Giardia intestinalis [18]): 10 nM

Compound: O=C(/C=C/c1ccc([N+](=O)[O-])o1)N1CCN(c2ccnc3cc(Cl)ccc23)CC1
- IC50 (Giardia intestinalis [19]): 145000 nM

Compound: Cc1ncc([N+](=O)[O-])n1CC(C)OC(=O)Nc1ccc(Cl)cc1 (centres undefined)
- IC50 (Giardia intestinalis [1]): 500 nM

Compound: Cc1ncc([N+](=O)[O-])n1CCNC(=O)/C=C/c1ccc([N+](=O)[O-])o1
- IC50 (Giardia intestinalis [19]): 5600 nM

Compound: Cc1ncc([N+](=O)[O-])n1CC(C)O (centres undefined) [SECNIDAZOLE]
- IC50 (Giardia intestinalis [1]): 4100 nM

Compound: Cc1ncc([N+](=O)[O-])n1CC(C)OC(=O)NC1CCCCC1 (centres undefined)
- IC50 (Giardia intestinalis [1]): 500 nM

Compound: Cc1ncc([N+](=O)[O-])n1CC(C)OC(=O)Nc1ccc([N+](=O)[O-])cc1 (centres undefined)
- IC50 (Giardia intestinalis [1]): 500 nM

Compound: Cc1ncc([N+](=O)[O-])n1CCOC(=O)Nc1ccc(F)cc1
- IC50 (Giardia intestinalis [1]): 500 nM

Compound: Cc1ncc([N+](=O)[O-])n1CCO [METRONIDAZOLE]
- IC50 (Giardia intestinalis [20]): 500 nM
- IC50 (Giardia intestinalis [1]): 4400 nM
- IC50 (Giardia intestinalis [21]): 1000 nM
- MLC (Giardia intestinalis [22]): >500 µM
- IC50 (Giardia intestinalis [23]): 500 nM
- IC50 (Giardia intestinalis [24]): 500 nM
- IC50 (Giardia intestinalis [25]): 500 nM
- half-life [26]: 6 h
- IC50 (Giardia intestinalis [27]): 6200 nM
- IC50 (Giardia intestinalis [28]): 500 nM
- IC50 (Giardia intestinalis [29]): 500 nM
- MLC (Giardia intestinalis [30]): >500 µM
- IC50 (Giardia intestinalis [31]): 500 nM
- MLC (Giardia intestinalis [32]): 50 µM (≈ 8.56 µg/mL)
- MLC (Giardia intestinalis [33]): 100 µM (≈ 17.1 µg/mL)
- IC50 (Giardia intestinalis [34]): 500 nM
- IC50 (Giardia intestinalis [35]): 500 nM
- IC50 (Giardia intestinalis [36]): 500 nM

Compound: Cc1ccc(C(Br)C(Br)c2ncc([N+](=O)[O-])n2C)cc1 (centres undefined)
- MIC (Giardia intestinalis [37]): 5 µM (≈ 2.02 µg/mL)
- MIC (Giardia intestinalis [38]): 5 µM (≈ 2.02 µg/mL)
- MIC (Giardia intestinalis [39]): 10 µM (≈ 4.03 µg/mL)

Compound: CC(=O)Oc1ccccc1C(=O)Nc1ncc([N+](=O)[O-])s1 [NITAZOXANIDE]
- half-life [26]: 7.3 h

Compound: COC(=O)Nc1nc2ccc(C(=O)c3ccccc3)cc2[nH]1 [MEBENDAZOLE]
- IC50 (Giardia intestinalis [40]): 60 nM
- IC50 (Giardia intestinalis [41]): 60 nM
- half-life [26]: 2.5 h
- IC50 (Giardia intestinalis [42]): 60 nM

Compound: CCOc1ccc2cc(-c3nc(C(C)(C)C)n4ccnc(N)c34)ccc2c1
- EC50 (Giardia intestinalis [43]): 600 nM
- EC50 (Giardia intestinalis [44]): 600 nM
- EC50 (Giardia intestinalis [45]): 1200 nM
